Key:
[1] = system: Escherichia coli, Staphylococcus aureus, and Micrococcus luteus; assay: Antimicrobial activity assay-2, zone of inhibition on LB agar; assay type: cell-based; conditions: peptide in 40% ACN/0.06% FA spotted in 10 μl on LB agar, 37° C. over night; FIG. 4 against S. aureus
Description: DCD1 was dissolved in 0.06% FA (2-5) or 40% ACN/0.06% FA (7-10). 1. 0.06% FA; 2. 5 μg DCD1; 3. 10 μg DCD1; 4. 30 μg DCD1; 5. 60 μg DCD1; 6.40% ACN/0.06% FA; 7. 5 μg DCD1; 8. 10 μg DCD1; 9. 30 μg DCD1; 10. 60 μg DCD1.
(§1) The antimicrobial activity of DCD1 and DCD1L peptides were tested against the following bacterial strains: Escherichia coli, Staphylococcus aureus, and Micrococcus luteus, isolated from skin. Bacterial cultures were grown to mid-exponential growth phase and bacterial concentration was estimated photometrically at 578 nm. Absorbance of 1.0 corresponded to 8.56×10^8/ml for E. coli, 1.97×10^8/ml for S. aureus. After dilution to a concentration of OD578nm 0.01 (˜10^6 CFU/ml), 100 μl of the cells were plated on LB agar. Afterwards different concentrations of the peptide dissolved in 40% ACN/0.06% FA were spotted on the plates in a total volume of 10 μl. As control 10 μl of 40% ACN/0.06% FA was used. The plates were incubated at 37° C. over night. After incubation the zone of inhibition was determined and the antimicrobial activity was calculated in dependence on the peptide concentration.

[2] = system: E. coli, methicillin-resistant Staphylococcus aureus, Staphylococcus epidermidis and Candida albicans; conditions: cited from earlier work
[3] = set-up: species or system human; conditions: in vivo
Description: Line 1-3: DCD1L dissolved in 300 mM NaCl, 10 mM NaH2PO4, pH 4.0 and incubated on skin for 0, 2 and 4 hours; Line 4-6: DCD1L dissolved in 300 mM NaCl, 10 mM NaH2PO4, pH 6.5 and incubated on skin for 0, 2 and 4 hours; […] and incubated on skin for 0, 2 and 4 hours. As controls are the recombinantly produced DCD1 and DCD1L peptides.
(A) 2 h, (B) 4 h, (C) 19 h. A total ion count chromatogram […] is shown in black and two single ion chromatograms for m/z 785 and m/z 805 corresponding to DCD1 and DCD1L respectively are shown.
For testing in vivo processing, the DCD1L peptide was dissolved in buffers (300 mM NaCl, 10 mM NaH2PO4) varying in pH (4, 6.5, and 9) and incubated on forearm. Therefore a construction composed of cardboard containing five ceramic rings was created. This construction was fixed on forearm with tape and ceramic rings were filled with 100 μl (˜140 μg) DCD1L. Finally an elastic foil was used to surround the whole construction. The incubation on skin varied from one to four hours before removing the samples from skin. Afterwards the peptide samples were analyzed by SDS PAGE (FIG. 5) and HPLC-MS (FIGS. 6 A and B) and also further incubated at room temperature in vitro (FIG. 6 C). […] This kind of processing was also analyzed by SDS PAGE and HPLC-MS.

[4] = system: Escherichia coli and Staphylococcus aureus; assay: Antimicrobial activity assay-1, colony-forming units (CFU) assay; assay type: cell-based; conditions: for reduction of bacteria (colony-forming units): 50-100 μg/ml peptide, 37° C. for 2-4 hours, 10 mM sodium phosphate buffer/10 mM NaCl pH 7.0
Description: Antimicrobial assays were performed using the colony-forming units (CFU) assay as previously described. The antibacterial activity of DCD-derived peptides was tested against the following bacterial strains: Escherichia coli and Staphylococcus aureus. Bacterial cultures were grown to mid-exponential growth phase and washed three times with 10 mM sodium phosphate buffer/10 mM NaCl (pH 7.0). Bacterial concentration was estimated photometrically at 600 nm. Absorbance of 1.0 corresponded to 8.56×10^8/ml for E. coli, 1.97×10^8/ml for S. aureus.
After dilution to a concentration of 10^6 CFU/ml, 10 μl of the dilutions were incubated at 37° C. for 2-4 hours with the respective peptide diluted in water in a total volume of 30 μl in 10 mM sodium phosphate buffer containing 10 mM NaCl (pH 7.0). After incubation, cells were diluted 1:100 in 10 mM sodium phosphate buffer containing 10 mM NaCl (pH 7.0) and 90 μl of the diluted bacterial suspension were plated in triplicates on blood agar. Bacterial colonies were counted after incubation for 18-24 hours at 37° C. The antimicrobial activity was calculated using [(cell survival after peptide incubation)/(cell survival in buffer without peptide)×100]. The LC90 describes the lethal concentration of the current peptide in μg/ml or M which leads to 90% reduction of colony-forming units compared to the buffer control. The assay was carried out with 50-100 μg/ml DCD1L and DCD1.

[5] = system: S. aureus; assay: Antimicrobial activity assay-2 with in vivo produced DCD1; assay type: cell-based; conditions: ~28 μg spotted, in 40% ACN/0.06% FA, S. aureus OD578nm 0.01 on LB agar
Description: DCD1 was dissolved in 40% ACN/0.06% FA. 1. 24 μg recombinantly produced DCD1 2. 24 μg in vivo produced DCD1; 3. 10 μl 40% ACN/0.06% FA;
as §1
To determine the antimicrobial activity, the in vivo produced DCD1 was lyophilized and dissolved in 40% ACN/0.06% FA. For testing its activity ˜28 μg DCD1 was spotted in LB agar plates containing 100 μl S. aureus (OD578nm 0.01) (see chapter Antimicrobial activity assay—2). As control 40% ACN/0.06% FA was spotted.

| Substance | antimicrobial activity (zone of inhibition) [1] | antimicrobial activity against several microorganisms [2] | conversion of DCD1L into DCD1 ([3]; pH 4) | incubation time after which processing of DCD1L to DCD1 was complete ([3]; pH 9) [h] | reduction of bacteria (colony-forming units) [4] | antimicrobial activity (inventors' finding, summary statement) ([4]; no conditions given at the place) | antimicrobial activity (inhibition zone) of DCD1 produced from DCD1L on skin [5] |
| --- | --- | --- | --- | --- | --- | --- | --- |
| DCD1L: 48 aa peptide, amino acids 63 to 110 of dermcidin, recombinantly produced (SSLLEKGLDGAKKAVGGLGKLGKDAVEDLESVGKGAVHDVKDVLDSVL; homo sapiens) | only activity emanating from DCD1 was detectable | have antimicrobial activity | always converted into DCD1 in a pH- and time-dependent manner | 16 | only the addition of DCD1 led to a reduction of diverse bacteria | does not have antimicrobial activity |  |
| SEQ ID NO: 4: peptide of amino acids 63 to 87 of dermcidin (SSLLEKGLDGAKKAVGGLGKLGKDA; homo sapiens) |  | have antimicrobial activity |  |  |  |  |  |
| SEQ ID NO: 5: peptide of amino acids 63 to 85 of dermcidin (SSLLEKGLDGAKKAVGGLGKLGK; homo sapiens) |  | have antimicrobial activity |  |  |  |  |  |
| DCD1: 47 aa peptide, amino acids 63 to 109 of dermcidin, recombinantly produced or formed from DCD1L on skin (SSLLEKGLDGAKKAVGGLGKLGKDAVEDLESVGKGAVHDVKDVLDSV; homo sapiens) | activity emanating from DCD1 was detectable | have antimicrobial activity |  |  | led to a reduction of diverse bacteria |  | is antimicrobial active |

From US20120213764A1, “NOVEL METHOD FOR THE PRODUCTION OF A ANTIMICROBIAL PEPTIDE” (B.R.A.I.N. BIOTECHNOLOGY RESEARCH AND INFORMATION NETWORK AG, priority 2009, published 2012)
